Publication PMC8650031, “Santin and cirsimaritin from Betula pubescens and Betula pendula buds induce apoptosis in human digestive system cancer cells” (Journal of Cellular and Molecular Medicine, 2021)

Tests used:
[1] = system: colorectal adenocarcinoma DLD‐1 cells; experiment: MTT cell viability assay, DLD-1 cells; assay type: cell-based, human; conditions: Homo sapiens, MTT
Protocol: (§1) Viability of cells was determined using the MTT assay. Cells were plated in 96‐well plates at 1 × 10^4 cells per well and allowed to adhere for 24 h. […] MTT (3‐(4,5‐Dimethyl‐2‐thiazolyl)‐2,5‐diphenyl‐2H‐tetrazolium bromide, Sigma‐Aldrich, USA) solution was added to each well, and cells were incubated at 37°C for 4 h. The medium was then removed, and formazan crystals were dissolved in 100 μL of DMSO and 12.5 μL of Sorensen's glycine buffer on a plate shaker. Absorbance was measured at 570 nm using a microplate reader. IC50 values were calculated using GraphPad Prism software.

[2] = system: hepatocellular carcinoma HepG2 cells; experiment: MTT cell viability assay, HepG2 cells; assay type: cell-based, human; conditions: Homo sapiens, MTT
Protocol: as §1

p53 in DLD‐1 cells = experiment: p53 expression by Western blot and fluorescence microscopy, DLD-1; assay type: cell-based, human; conditions: DLD-1, 48 h treatment
Protocol: (§2) Cells were seeded at a density of 1 × 10^5 cells per well in 6-well plates and allowed to adhere for 24 h. Cells were treated with various concentrations of flavonoids (12.5, 25, 50 and 100 […]
(§3) Adherent and floating cells were harvested and sonicated. Obtained homogenates were supplemented with 1% protease and phosphatase inhibitor cocktail (#78440, Thermo Fisher Scientific, USA). A Lowry assay was performed to quantify protein content in the homogenates. Proteins (20–40 μg) were resolved on 7.5%, 10% or 12% SDS-PAGE gels using the Mini-Protean Tetra system (Bio-Rad, USA). Proteins were transferred to nitrocellulose membranes (Bio-Rad, USA) using the Mini Trans-Blot Cell wet blotting system (Bio-Rad, USA). Membranes were blocked with 5% skim milk for 1 hour at room temperature and probed overnight at 4 °C with primary antibodies. The following antibodies […]
(§4) 1:1000), purchased from Cell Signaling Technology (USA); anti-p53 antibody (#sc-126, […]
(§5) 1:500) obtained from Santa Cruz Biotechnology (USA); and anti-actin antibody (#A2066, 1:2000) purchased from Sigma-Aldrich (USA). After extensive washes, a secondary antibody solution in 5% skim milk (anti-mouse IgG-HRP, Sigma-Aldrich, #A9044, 1:5000; anti-rabbit IgG-HRP, Sigma-Aldrich, #A9169, 1:5000) was added for 1 h at room temperature.
(§6) Membranes were incubated with ECL-HRP substrate (GE Healthcare, USA) and the signal was detected using the BioSpectrum Imaging System (Ultra-Violet Products, Ltd., UK).
(§7) 2.8. Immunofluorescence microscopy
(§8) Cells were plated in 96-well plates at 1 × 10^4 cells per well and allowed to adhere for 24 h.
(§9) Cells were treated with the respective concentration of flavonoids and incubated for 48 h. […]
(§10) The mass spectrometric detector was calibrated by analyzing flavonoid solutions in the concentration range 0.06‒2.0 mg/ml in the mode of selective monitoring of the most intense ions (M+ ‒ CH3) in the spectra of TMS derivatives of the determined components (Table S1).

DLD‐1 cells [3] = experiment: [3H]-thymidine incorporation (DNA biosynthesis), DLD-1; assay type: cell-based, human; conditions: DLD-1, 50 μM, 48 h
Protocol: (§11) Cells were plated in 24‐well plates at 4 × 10^4 cells per well and allowed to adhere for 24 h. Cells were treated with the various concentrations of flavonoids (25, 50 and 100 μM) in 1 mL medium containing 0.5 μCi [^3H]‐thymidine (#MT6037, Hartmann Analytic, Germany) for 48 h. Medium was discarded, and cells were rinsed three times with phosphate buffered saline (PBS), and solubilized with 1 mL of 0.1 M sodium hydroxide containing 1% sodium dodecyl sulphate. Then, 9 mL of scintillation liquid (PerkinElmer, USA) was added, and radioactivity incorporated into DNA was measured using a scintillation counter.

AGS cells [4] = experiment: Colony formation assay, AGS; assay type: cell-based, human; conditions: 3.125 μM, 48 h treatment then 7 days culture
Protocol: (§12) 2.5. Colony formation assay
(§13) In total, 250 cells were plated in each well of 12-well plates and allowed to adhere for 24 h.
(§14) Cells were treated with various concentrations of flavonoids (3.125, 6.25, 12.5, 25, 50 and 100 μM) for 48 h. Medium was discarded and fresh medium was added. After seven days, culture medium was removed and cells were washed once with PBS. Then, cells were fixed with 4% formaldehyde and stained with 0.1% crystal violet. […]

p53 in HepG2 cells = experiment: p53 expression by Western blot and fluorescence microscopy, HepG2; assay type: cell-based, human; conditions: HepG2, 48 h treatment
Protocol: as §2, §3, §4, §5, §6, §7, §8, §9, §10

[5] = system: normal human skin fibroblasts (CCD25Sk); experiment: MTT cell viability assay, normal fibroblasts; assay type: cell-based; conditions: Skin fibroblast
Protocol: as §1

p53 in AGS cells = experiment: p53 expression by Western blot and fluorescence microscopy, AGS; assay type: cell-based, human; conditions: 48 h treatment
Protocol: as §2, §3, §4, §5, §6, §7, §8, §9, §10

HepG2 cells [6] = experiment: Annexin V/propidium iodide apoptosis assay, HepG2; assay type: cell-based, human; conditions: HepG2, 12.5 μM, 48 h
Protocol: (§15) Cells were seeded at a density of 1 × 10^5 cells per well in 6-well plates and allowed to adhere for 24 h. Cells were treated with various concentrations of flavonoids (12.5, 25, 50 and 100 μM) for 48 h. Floating and adherent cells were collected and assayed using a Dead Cell Apoptosis Kit with annexin V-fluorescein isothiocyanate (FITC) and propidium iodide (PI), for flow cytometry (#V13242, Thermo Fisher Scientific, USA), according to the manufacturer’s protocol. Briefly, cells were dispersed in 100 μL annexin-binding buffer containing 5 μL annexin V-FITC conjugate solution, 1 μg/mL PI and 1 μg/mL Hoechst 33342, and incubated for 15 min at room temperature. Then 400 μL of annexin-binding buffer was added, and the cell suspension was transferred to 96-well plates and visualised using fluorescence microscopy on a BD Pathway 855 system (Becton Dickinson, USA). Early […]
(§16) red and blue fluorescence. […]

DLD‐1 cells [7] = experiment: Annexin V/propidium iodide apoptosis assay, DLD-1; assay type: cell-based, human; conditions: DLD-1, 12.5 μM, 48 h
Protocol: as §15, §16

AGS cells [8] = experiment: [3H]-thymidine incorporation (DNA biosynthesis), AGS; assay type: cell-based, human; conditions: 50 μM, 48 h
Protocol: as §11

HepG2 cells [9] = experiment: [3H]-thymidine incorporation (DNA biosynthesis), HepG2; assay type: cell-based, human; conditions: HepG2, 50 μM, 48 h
Protocol: as §11

DLD‐1 cells [10] = experiment: Colony formation assay, DLD-1; assay type: cell-based, human; conditions: DLD-1, 6.25 μM, 48 h treatment then 7 days culture
Protocol: as §12, §13, §14

[11] = system: gastric adenocarcinoma AGS cells; experiment: MTT cell viability assay, AGS cells; assay type: cell-based, human; conditions: Homo sapiens, MTT
Protocol: as §1

AGS cells [12] = experiment: Annexin V/propidium iodide apoptosis assay, AGS; assay type: cell-based, human; conditions: 12.5 μM, 48 h
Protocol: as §15, §16

HepG2 cells [13] = experiment: Colony formation assay, HepG2; assay type: cell-based, human; conditions: HepG2, 3.125 μM, 48 h treatment then 7 days culture
Protocol: as §12, §13, §14

COc1ccc(-c2oc3cc(O)c(OC)c(O)c3c(=O)c2OC)cc1 [santin]
IC50 ([1]; DLD-1, 24 h): > 50 µM | IC50 ([1]; DLD-1, 48 h): 28 ± 1.3 µM | IC50 ([1]; DLD-1, 72 h): 36.5 ± 2.5 µM | IC50 ([2]; HepG2, 24 h): > 50 µM | IC50 ([2]; HepG2, 48 h): 19.8 ± 0.9 µM | IC50 ([2]; HepG2, 72 h): 22.7 ± 1.6 µM | p53 level (p53 in DLD‐1 cells): decreased | reduction of [3H]-thymidine incorporation (DLD‐1 cells [3]): 35.0% | decrease in colony numbers (AGS cells [4]): 77.4% | p53 level (p53 in HepG2 cells): increased significantly | IC50 ([5]; 24 h): > 50 µM | IC50 ([5]; 48 h): > 50 µM | IC50 ([5]; 72 h): > 50 µM | p53 level (p53 in AGS cells): increased significantly | percentage of cells in the early stage of apoptosis (HepG2 cells [6]): 36.6% | percentage of cells in the late stage of apoptosis (HepG2 cells [6]): 16.1% | percentage of cells in the early stage of apoptosis (DLD‐1 cells [7]): 54.8% | percentage of cells in the late stage of apoptosis (DLD‐1 cells [7]): 6.7% | reduction of [3H]-thymidine incorporation (AGS cells [8]): 48.0% | reduction of [3H]-thymidine incorporation (HepG2 cells [9]): 74.9% | decrease in number of colonies (DLD‐1 cells [10]): 60% | IC50 ([11]; 24 h): > 50 µM | IC50 ([11]; 48 h): 17.1 ± 0.8 µM | IC50 ([11]; 72 h): 13.9 ± 1.2 µM | percentage of cells in the early stage of apoptosis (AGS cells [12]): 65.8% | percentage of cells in the late stage of apoptosis (AGS cells [12]): 7.6% | decrease in colony numbers (HepG2 cells [13]): 65.8%
